Assay in all cases: inhibition of tumour cell growth, NCI panel, 48 h
In test [1] the test system is A549 NSCLC.
Test [2] deals with COLO 205 colon.
In test [3] the test system is EKVX NSCLC.
In test [4] the test system is HOP-62 NSCLC.
The test system of test [5] is HOP-92 NSCLC.
Test [6] relates to LOX IMVI melanoma.
Test [7] has as its system MDA-MB-435.
The subject of test [8] is MDA-N.
For test [9], the system named is NCI-H226 lung.
In test [10] the test system is NCI/ADR-RES ovarian.
The subject of test [11] is SF-268 CNS.
For test [12], the system named is SK-MEL-2 melanoma.
Test [13] concerns SK-MEL-5 melanoma.
Test [14] relates to SNB-19 CNS.
In test [15] the test system is SNB-75 CNS.
Test [16] concerns SR leukemia.
The test system of test [17] is SW-620 colon.
Test [18] relates to TK-10 renal.
The test system of test [19] is U251 CNS.
Test [20] deals with HCT-15 colon.

SMILES strings stand for the structures.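 Cells were grown in 96-well plates and exposed to each compound for 48 hours at five concentrations; endpoints were interpolated linearly between bracketing concentrations, or set to the highest concentration if not reached. TGI: concentration producing complete growth inhibition.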

Regarding `CCOC(=O)/C=C(/C(=O)OCC)n1ccc(=O)n(Cc2cnnn2CCCCOC(C)=O)c1=O`, the TGI in test [1] is more than 100 µM; in test [2], 46 µM; in test [3], more than 100 µM; in [4], more than 100 µM; in test [5] it was 45.7 µM; in test [6], more than 100 µM. Moreover, the TGI in test [7], in test [8], in [9], in [10], in [11] and in test [12] was more than 100 µM in each case. In addition, the TGI in test [13] was more than 100 µM; in [14] it was more than 100 µM; in [15] it was more than 100 µM; in test [16], more than 100 µM; in test [17] it was 43.2 µM; in test [18], more than 100 µM. In test [19], this molecule yielded a TGI of more than 100 µM.
Turning to `O=C1/C(=C/c2ccccc2)CCCc2ccccc21`, the TGI in test [1] was determined as 67.1 µM; in test [2] it was 33.3 µM; in test [3], 37.3 µM; in test [20] it was 32.3 µM; in test [4], 36.3 µM; in test [5], 32.9 µM. Also, the TGI is 34.9 µM in [6]; 38.9 µM in [7]; 36.7 µM in test [8]; 36.6 µM in [9]; 40.5 µM in [10]; 32.6 µM in [11]. Also, the TGI was 29.9 µM in test [12]; 29.3 µM in test [14]; more than 100 µM in [15]; 37.8 µM in test [16]; 32.9 µM in test [17]; 37.5 µM in [18]. Also, the TGI in [19] was 29.1 µM.
Consider `Cc1cc(C)nc(NS(=O)(=O)c2ccc(NC(=O)c3cc([N+](=O)[O-])cc([N+](=O)[O-])c3)cc2)n1`, for which the TGI in test [1] was more than 100 µM; in test [2], 45.7 µM; in [20], more than 100 µM; in test [4], more than 100 µM; in test [5], more than 100 µM; in [6] it was more than 100 µM. Also, the TGI in [7], in [8], in [9], in [10], in test [11] and in test [12] was more than 100 µM each time. For the same molecule, the TGI was more than 100 µM in test [13]; more than 100 µM in [14]; more than 100 µM in test [15]; 14.7 µM in [16]; more than 100 µM in test [17]; more than 100 µM in test [18]. The TGI in test [19] was more than 100 µM.
On to `Cc1ccc(SCC(OCn2cnc3c(Cl)nc(N)nc32)[C@H](C)F)cc1` (stereo not given in full), for which the TGI in test [1], in test [2], in test [20], in test [4], in test [5] and in test [6] was more than 100 µM throughout. Also, the TGI in [7], in test [8], in test [9], in [10], in [11] and in [12] was more than 100 µM each time. The TGI in [13] is 47.6 µM; in test [14], more than 100 µM; in test [15], more than 100 µM; in test [16], more than 100 µM; in [17], more than 100 µM; in test [18], more than 100 µM. The molecule further had a TGI in test [19] of more than 100 µM.
For the molecule `CCOC(=O)C1(C(=O)OCC)C=C(c2ccccc2)N(C2OC(COC(C)=O)C(OC(C)=O)C(OC(C)=O)C2OC(C)=O)C1=S` (stereo not given), the TGI in test [1], in test [2], in test [3], in test [20], in test [4] and in [5] was more than 100 µM in each case. For the same molecule, the TGI in test [6], in [7], in test [8], in test [9], in test [10] and in test [11] was more than 100 µM in each case. In addition, the TGI in test [12], in test [13], in test [14], in test [16], in test [17] and in test [19] was more than 100 µM each time.
As to `COC(=O)CNC(=O)CCC(C)[C@H]1CCC2C3C(C[C@H](OC(C)=O)[C@@]21C)[C@@]1(C)CCC2(C[C@H]1C[C@H]3OC(C)=O)OOC1(CCCCC1)OO2` (stereo not given in full), the TGI in [1] came to 3.36 µM; in test [2] it was 3.89 µM; in [3], 3.74 µM; in test [20], 8.65 µM; in test [4], 1.73 µM; in [5] it was 2.72 µM. Further, the TGI in test [7] came out at 4.06 µM; in [8], 3.36 µM; in test [9], 4.65 µM; in test [10], 4.7 µM; in [11], 3.59 µM; in [12], 6.49 µM. For the same molecule, the TGI in [13] is 8.12 µM; in [14], 17.8 µM; in [15], 5.3 µM; in [16] it was 4.21 µM; in test [17] it was 5.46 µM; in test [18] it was 24.2 µM. The TGI in test [19] was 3.41 µM.
Turning to `CC(=O)NC1C(OCc2ccccc2)OC(CO)C(O)C1OCC(=O)N[C@@H](C)C(=O)N[C@H](CCC(=O)NCCNc1ccc([N+](=O)[O-])c2[nH]c3ccccc3c(=O)c12)C(N)=O` (stereo not given in full), the TGI is more than 100 µM in [2]; 60.5 µM in test [3]; 44.9 µM in test [20]; more than 100 µM in test [4]; 80.8 µM in [5]; 99.5 µM in [6]. In addition, the TGI is more than 100 µM in test [7]; more than 100 µM in test [8]; 32.4 µM in [9]; 59.7 µM in [10]; more than 100 µM in test [13]; 93.2 µM in test [14]. For the same molecule, the TGI in test [15] is 61.5 µM; in [16], more than 100 µM; in test [17], more than 100 µM; in test [18] it was 42.3 µM; in test [19] it was more than 100 µM.

These data come from PubChem BioAssay (NCI).
